# Source: patent publication US20100105673A1, “SUBSTITUTED AMINOFURANONES AND THEIR USE” (priority 2006, published 2010)
# Biological target: T1, HIV-1 protease wild type protein (Human immunodeficiency virus type 1 group M subtype B, UniProt P04585)
# T1 construct: 20 μl of 0.2−1 nM HIV-1 protease wild type or mutant protein; purchased AscoProt Biotech, Prague, Czech Republic
# Assay: Biochemical Protease Assay
# Method: For the determination of their in vitro activity on HIV protease the test substances are dissolved in DMSO and serially diluted. In each case 0.5 μl of substance dilution, 20 μl of 0.2−1 nM HIV-1 protease wild type or mutant protein (e.g. multiresistant isolate “35513”: L10I, I15V, L19I, K20R, E35D, M36I, R41K, I54V, L63P, H69K, A71V, T74P, I84V, L89M, L90M, 193L, AscoProt Biotech, Prague, Czech Republic) in buffer 1 (50 mM sodium acetate pH 4.9, 0.02% BSA, 0.1 mM EDTA, 0.5 mM DTT) and 20 μl of 8 μM substrate (M1865 from Bachem, Bubendorf, Switzerland; Matayoshi et al., Science 1990, 247, 954-8) in buffer 1 are added successively to a 384 well microtiter plate (Greiner, Frickenhausen, Germany), incubated for 60-180 minutes at 32° C. and the fluorescence is measured (e.g. Tecan Safire, 340 nm extinction, 520 nm emission). IC50 values are determined by graphical plotting of the substance concentration against the percentage inhibition.
row,SMILES,IC50 [nM]
1,Cc1cc(-c2cccc(S(C)(=O)=O)c2)c(Cl)cc1C1=C(N)C2(CCCN(CC(=O)NCc3cccc(F)c3F)C2)OC1=O (stereo not drawn) [Example 51],2.6
2,CCC(C)CNC(=O)CN1CCCC2(C1)OC(=O)C(c1cc(Cl)c(-c3cccc(S(C)(=O)=O)c3)cc1C)=C2N (stereo not drawn) [Example 79],85
3,Cc1cc(-c2cccc(NS(=O)(=O)CCN3CCOCC3)c2)c(Cl)cc1C1=C(N)C2(CCCCC2)OC1=O [Example 20],510
4,Cc1cc(-c2cccc(O)c2)c(Cl)cc1C1=C(N)C2(CCCN(CC(=O)NCc3ccccc3)C2)OC1=O (stereo not drawn) [Example 27],14
5,"Cc1cc(-c2cccc(S(C)(=O)=O)c2)c(Cl)cc1C1=C(N)[C@@]2(CCCN(CC(=O)NCc3cccs3)C2)OC1=O (single isomer, unassigned) [Example 84]",2.5
6,"Cc1cc(-c2cccc(S(C)(=O)=O)c2)c(Cl)cc1C1=C(N)[C@@]2(CCCN(CC(=O)NCc3ccccc3)C2)OC1=O (single isomer, unassigned) [Example 82]",11
